PubChem BioAssay (NCI)
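All cell lines were grown in 96-well plates and treated with compound for 48 hours. GI50: concentration for 50% inhibition of growth. The concentration for full growth arrest is given as TGI.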

Legend:
Experiment in all cases: growth of human tumour cells (NCI), 48 h
MALME-3M melanoma = tested on: MALME-3M melanoma
SF-268 CNS = tested on: SF-268 CNS
SNB-19 CNS = tested on: SNB-19 CNS
COLO 205 colon = tested on: COLO 205 colon
SN12C renal = tested on: SN12C renal
SNB-75 CNS = tested on: SNB-75 CNS
NCI-H460 lung = tested on: NCI-H460 lung
UACC-257 melanoma = tested on: UACC-257 melanoma
HCT-15 colon = tested on: HCT-15 colon
MOLT-4 leukemia = tested on: MOLT-4 leukemia

Structure (SMILES)	TGI (MALME-3M melanoma) [µM]	TGI (SF-268 CNS) [µM]	TGI (SNB-19 CNS) [µM]	TGI (COLO 205 colon) [µM]	TGI (SN12C renal) [µM]	TGI (SNB-75 CNS) [µM]	TGI (NCI-H460 lung) [µM]	TGI (UACC-257 melanoma) [µM]	TGI (HCT-15 colon) [µM]	TGI (MOLT-4 leukemia) [µM]	GI50 (SF-268 CNS) [µM]	GI50 (SNB-19 CNS) [µM]	GI50 (COLO 205 colon) [µM]	GI50 (SN12C renal) [µM]	GI50 (NCI-H460 lung) [µM]	GI50 (HCT-15 colon) [µM]	GI50 (UACC-257 melanoma) [µM]
O=C1C[C@H](Sc2ccccc2)C2(OCCO2)[C@@H](Sc2ccccc2)C1	7.81	8.83	> 43.6	15.4	10.6	26	> 44.5	4.51									
CN(C)c1ccc(C=C2N=C(c3ccccc3)N(c3cc(C(=O)c4ccccc4)ccc3N3C(=O)/C(=C/c4ccc(N(C)C)cc4)N=C3c3ccccc3)C2=O)cc1		> 100	> 100	19.4	> 100	78.9	> 100	> 100	> 100	14.9							
COC(=O)[C@]12CC[C@H]3CN(C(=O)OCc4ccccc4)[C@H]([C@H]31)[C@H](c1ccco1)N2S(=O)(=O)c1ccc(C)cc1	38.3	59.3	> 100	38.4	39		87.8	50.9	30.8	> 100							
COc1cc(NS(C)(=O)=O)ccc1N1Cc2cnc3ccc4[nH]c(C)cc1c4c23		63.4	32.7	> 100		46.5	> 100	> 100	> 100	> 100							
N#CCCN(CCC#N)c1ccc(/C=C2\N=C(c3ccccc3)N(c3ccc(Cl)cc3)C2=O)cc1	> 100	> 100	> 100	> 100	> 100		> 100	> 100	> 100	> 100							
CC(C)(C)NC(=O)/C(=C\Sc1ccccc1)c1ccc2c(c1)OCO2		52.3	> 100	53.4	84.2			74.5	> 100	> 100							
CCN(CCO)CC1COc2ccccc2O1 (centres undefined)	> 100	> 100		> 100	> 100		> 100	> 100	> 100	> 100							
CCN(C(=S)N[C@@H](Cc1ccccc1)C(=O)N[C@@H](CC(C)C)C(=O)OC)c1ccccc1	> 100		> 100	> 100	> 100	> 100	> 100	> 100	> 100	81.2							
CC(=O)N/N=C1\NC(=O)C[C@H]2[C@@H]3CC=C4C[C@@H](OC(C)=O)CC[C@]4(C)[C@H]3CC[C@]12C	> 100	> 100	39.9	> 100	> 100	46.9		> 100	> 100	> 100							
C=C[C@@H]1C(CO)=CCC2[C@H]1CCC1C(C)(C)C(=O)CC[C@]21C (some centres undefined)	> 100	> 100	> 100	> 100	> 100		> 100	> 100	> 100	> 100							
COc1cc([N+](=O)[O-])c(OC)cc1-c1nc2sc(Cl)cn2c1/C=N/Nc1ccccn1		> 50	> 50	> 50	36.8		> 50	> 50	> 50		19.2	> 50	> 50	8.53	15.8	28.1	> 50
